A short description of data set [1]: Ocular tissue and plasma pharmacokinetics, 15 mg/kg oral, New Zealand White rabbits (Example 3/5). The data set is classed as in vivo. Here is the method: Study design including group designation and dose levels are outlined in Table 4. […] Fifteen Dutch Belted and 5 New Zealand White rabbits were used as un-dosed controls. […] The dose volume was 5 mL/kg/dose for all groups. Safety was assessed with toxicological and ophthalmic examinations including slit lamp biomicroscopy, indirect ophthalmoscopy, rebound tonometry, and ultrasonic corneal pachymetry.
Analyst® software (Version 1.6.2) was used to capture the LC-MS/MS data and integrate the peak areas. Calibration standards and QCs were prepared in a blank solution of 75%:25% acetonitrile:water (v:v), ranging from 10 ng/mL to 10,000 ng/mL. Matrix matched standard and QC samples were prepared by mixing 2 μL of standard or QC sample above with 18 μL of appropriate ocular tissue or plasma. The final calibration standards ranged from 1 ng/mL to 1000 ng/mL. All plasma, retina, choroid-RPE, optic nerve, and vitreous humor samples were analyzed in a single run. Iris-ciliary body samples were analyzed in two runs due to a need for sample dilution. […] Dilution QCs were prepared at 5000 ng/mL where appropriate. Two sets of standards were used to bracket the analytical run at the beginning and end of the run. Three sets of QCs were included the analytical runs. All concentrations in ocular matrices are reported as ng/g based on the assumed density of 1 g/mL.
1, 6, 24, 96, 168, and 240 hours post-dose on Day 15, with the eyes collected at the same time as blood sampling. A single blood sample was taken from Groups 4 and 5 at sacrifice. Plasma, vitreous humor (VH), retina, choroid-retina pigmented epithelium (Choroid-RPE), optic nerve (ON), and iris-ciliary body (I-CB) were analyzed by LC-MS/MS to quantify test article concentrations. The lower limit of quantitation (LLOQ) in plasma and vitreous humor was 1.0 ng/mL. The LLOQ was 6.0 ng/g in retina, Choroid-RPE, and I-CB and the optic nerve LLOQ was 15 ng/g, assuming tissue density of 1 g/mL where relevant.
Study design including group designation and dose levels are outlined in Table 18.

Data set [2] is described as follows: Multiple ascending dose (MAD) pharmacokinetics in humans. The data set is classed as in vivo.
Data set [3] deals with AP activity. Nature of the data set: cells. The note with it: Oryctolagus cuniculus, Erythrocyte, read-out: IC50 for rabbit erythrocyte hemolysis.

Structures are written as SMILES.

The term MRT last denotes a mean duration of stay, worked out from the concentration-time curve. For orientation: Cmax means the highest concentration seen after dosing. By IC50 is commonly meant the midpoint of a concentration-inhibition curve. For `CC(=O)c1nn(CC(=O)N2C[C@H](F)C[C@H]2C(=O)Nc2cccc(Br)n2)c2ccc(-c3cnc(C)nc3)cc12` [Compound 1, (2S,4R)-1-(2-(3-Acetyl-5-(2-methylpyrimidin-5-yl)-1H-indazol-1-yl)acetyl)-N-(6-bromopyridin-2-yl)-4-fluoropyrrolidine-2-carboxamide], the “Mean Vitreous Humor concentration” value in data set [1] (NZW rabbit, 15 mg/kg single oral dose, Day 1, 240 h) is “BLQ^a”. Further, the “Mean retina concentration” value in data set [1] (NZW rabbits, Day 1, 15 mg/kg single dose, 96 hr) is given as “BLQ”. The concentration at 0 h in data set [1] (New Zealand White, aqueous humor, NZW rabbit, 15 mg/kg single oral dose, Day 1, 0 h) was determined as 6.14 ng/mL. The concentration at 1 h in data set [1] (New Zealand White, iris-ciliary body, NZW rabbit, 15 mg/kg single oral dose, Day 1, 1 h) stood at 117 ng/g. The MRT last in data set [1] (New Zealand White, po, Vitreous Humor, NZW rabbit, 15 mg/kg single dose, Day 1) turned out to be 2.24 h. In data set [1] (New Zealand White, po, retina, NZW rabbit, 15 mg/kg single dose, Day 1), this compound displayed a Cmax of 200 ng/g. Also, the Tlast in data set [1] (Vitreous Humor, NZW rabbit, 15 mg/kg single dose, Day 1) was found to be 6 h. In data set [1] (plasma, NZW rabbit, 15 mg/kg single dose, Day 1), this compound came in with an AUClast of 1430 ng·h/mL. Moreover, the “Steady state conditions reached” value in data set [2] (MAD study) is given as “Day 2”. The Tmax in data set [2] (human, in vivo, 200 to 800 mg BID and 75 mg TID, read-out: Median time to maximum concentration (Tmax)) was 1 to 2.3 h. The IC50 in data set [3] came to 27 nM.

For the origin of these results see US20230126447A1, “OCULAR DRUG DEPOT FOR COMPLEMENT-MEDIATED DISORDERS” (priority 2020, published 2023).
